Earlier results on one substance are cited in patent US20120252835A1, “STABLE TEMSIROLIMUS COMPOSITION AND PROCESS OF PREPARING SAME” (ASTRON RESEARCH LIMITED, priority 2011, published 2012).

Take “Rapamycin, 42-[3-hydroxy-2-(hydroxymethyl)-2-methylpropanoate] [Temsirolimus]”: under “ethanol, propylene glycol, polyethylene glycol and the likes”, the “Solubility in alcohols acceptable for parenteral administration” value is “soluble”. Besides, the Solubility in water result (water) is “practically insoluble”.
